For 38 compounds, AC50 results are on record in patent US20250262201A1, “COMPOUNDS AND METHODS USEFUL FOR STABILIZING PHENYLALANINE HYDROXYLASE MUTATIONS” (Agios Pharmaceuticals, Inc., priority 2022, published 2025).

Where two headings read alike, the source gives them in different places.

The assay concerns the target T1, human PAH with the R408W mutation (Homo sapiens, UniProt P00439, R408W).
T1 construct: expressed in transfected cells
T1 sequence (P00439 1-452 R408W): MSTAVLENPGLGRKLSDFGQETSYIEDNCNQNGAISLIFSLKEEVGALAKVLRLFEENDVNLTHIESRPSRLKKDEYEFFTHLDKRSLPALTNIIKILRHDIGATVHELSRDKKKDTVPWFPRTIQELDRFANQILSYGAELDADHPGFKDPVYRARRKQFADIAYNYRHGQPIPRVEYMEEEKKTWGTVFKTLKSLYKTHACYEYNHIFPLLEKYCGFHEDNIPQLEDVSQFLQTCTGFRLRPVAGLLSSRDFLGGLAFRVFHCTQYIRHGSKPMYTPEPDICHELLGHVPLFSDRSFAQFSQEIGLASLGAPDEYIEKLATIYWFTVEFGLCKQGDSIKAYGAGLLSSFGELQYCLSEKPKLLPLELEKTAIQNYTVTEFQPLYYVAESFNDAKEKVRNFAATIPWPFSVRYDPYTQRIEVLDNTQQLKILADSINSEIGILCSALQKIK
Put plainly: Cell Based Phenylalanine Flux Assay. The following applies: 13C-Tyrosine by LC-MS, average where tested multiple times, read-out: AC50.

Where [1] appears, read: A375 cells expressing human R408W PAH, 24 hrs compound incubation.
Setting [2] is: A375 R408W cells, 24 hrs with compound, then 20 μM sepiapterin and 800 μM 13C9,15N-Phenylalanine for 4 hours.

`O=C(c1cnc(-c2ccc(F)cn2)s1)N1CCc2[nH]cnc2C1c1cc2ccccc2cn1` (stereo in doubt) [Example 312, (R)-(2-(5-fluoropyridin-2-yl)thiazol-5-y1)(4-(isoquinolin-3-yl)-6,7-dihydro-1H-imidazo[4,5-c]pyridin-5(4H)-yl)methanone]: the concentration at half-maximal activity (AC50) under setting [1] is under 500 nM. Take `Cc1nc(N2CCN(C)CC2)oc1C(=O)N1CCc2[nH]cnc2C1c1ccc2ccccc2n1` (centres unmarked): the AC50 under setting [2] was in the range of 1000 to 5000 nM. As for `CN1CCN(c2nnc(C(=O)N3CCc4[nH]cnc4C3c3ccc4ccccc4n3)o2)CC1` (centres unmarked), the concentration at half-maximal activity (AC50) under setting [2] is 1000 to 5000 nM. Turning to `Cn1nc(Cl)nc1C(=O)N1CCc2[nH]cnc2C1c1ccc2ccccc2n1` (stereo in doubt) [Example 265, (R)-(3-chloro-1-methyl-1H-1,2,4-triazol-5-yl)(4-(quinolin-2-yl)-6,7-dihydro-1H-imidazo[4,5-c]pyridin-5(4H)-yl)methanone], under setting [1], the AC50 was in the range of 500 to 1000 nM.

Turning to `O=C(c1nnc(-c2ccc(F)cn2)o1)N1CCc2[nH]cnc2[C@H]1c1ncc2ccccc2n1` [Example 168, (S)-(5-(5-fluoropyridin-2-yl)-1,3,4-oxadiazol-2-yl)(4-(quinazolin-2-yl)-6,7-dihydro-1H-imidazo[4,5-c]pyridin-5(4H)-yl)methanone], under setting [1], the AC50 was under 500 nM. For the compound `O=C(c1nnc(C2CC2)o1)N1CCc2[nH]cnc2[C@H]1c1ncc2ccccc2n1` [Example 139, (S)-(5-cyclopropyl-1,3,4-oxadiazol-2-yl)(4-(quinazolin-2-yl)-6,7-dihydro-1H-imidazo[4,5-c]pyridin-5(4H)-yl)methanone], the AC50 under setting [1] lay in the range of 500 to 1000 nM. Regarding `O=C(c1cnc(-c2ccc(F)cn2)s1)N1CCc2[nH]cnc2[C@@H]1c1cc2ccccc2cn1` [Example 313, (S)-(2-(5-fluoropyridin-2-yl)thiazol-5-yl)(4-(isoquinolin-3-yl)-6,7-dihydro-1H-imidazo[4,5-c]pyridin-5(4H)-yl)methanone], the AC50 under setting [1] was in the range of 1000 to 5000 nM. On to `O=C(c1nnc(C2CC2)o1)N1CCc2[nH]cnc2C1c1ccc2ccccc2n1` (stereo in doubt) [Example 10, (S)-(5-cyclopropyl-1,3,4-oxadiazol-2-yl)(4-(quinolin-2-yl)-6,7-dihydro-1H-imidazo[4,5-c]pyridin-5(4H)-yl)methanone], for which, under setting [1], the AC50 was 1000 to 5000 nM. With `C[C@@H]1CN(C(=O)c2cnc(-c3ccccn3)o2)[C@H](c2cc3ccccc3cn2)c2nc[nH]c21` [Example 384, ((4R,7R)-4-(isoquinolin-3-yl)-7-methyl-6,7-dihydro-1H-imidazo[4,5-c]pyridin-5(4H)-yl)(2-(pyridin-2-yl)oxazol-5-yl)methanone], under setting [1], the AC50 fell in the range of 1000 to 5000 nM. Consider `O=C(c1nnc(-c2ccn(C(F)F)n2)o1)N1CCc2[nH]cnc2C1c1ccc2ccccc2n1` (stereo in doubt) [Example 95, (S)-(5-(1-(difluoromethyl)-1H-pyrazol-3-yl)-1,3,4-oxadiazol-2-yl)(4-(quinolin-2-yl)-6,7-dihydro-1H-imidazo[4,5-c]pyridin-5(4H)-yl)methanone], for which the AC50 under setting [1] lay in the range of 1000 to 5000 nM. On to `O=C(c1cncs1)N1CCc2[nH]cnc2C1c1cc2ccccc2cn1` (centres unmarked), for which the AC50 under setting [2] was over 5000 nM. For `O=C(c1oc(-c2ccccn2)nc1C1CC1)N1CCCc2[nH]cnc2[C@@H]1c1cc2ccccc2cn1` (single isomer, unassigned) [Example 380], the AC50 under setting [1] was over 5000 nM. For the compound `O=C(C1CN(c2ccccn2)C1)N1CCc2[nH]cnc2C1c1ccc2ccccc2n1` (centres unmarked), the AC50 under setting [2] fell in the range of 1000 to 5000 nM. For the compound `CN(C)Cc1ccc2c(C(=O)N3CCc4[nH]cnc4[C@@H]3c3cc4ccccc4cn3)cnn2c1` [Example 331, (S)-(6-((dimethylamino)methyl)pyrazolo[1,5-a]pyridin-3-yl)(4-(isoquinolin-3-yl)-6,7-dihydro-1H-imidazo[4,5-c]pyridin-5(4H)-yl)methanone], the AC50 under setting [1] is over 5000 nM. Regarding `Cc1nc(-c2ccccn2)oc1C(=O)N1CCc2[nH]cnc2C1c1cn2ccccc2n1` (centres unmarked), the AC50 under setting [2] lay in the range of 1000 to 5000 nM. As for `Cn1cc(-c2ncc(C(=O)N3CCc4[nH]cnc4C3c3ncc4ccccc4n3)o2)cn1` (centres unmarked), under setting [2], the half-maximal activity concentration (AC50) is over 5000 nM.

Take `O=C(c1nnc(-c2cnn(C(F)F)c2)o1)N1CCc2[nH]cnc2C1c1ccc2ccccc2n1` (stereo in doubt) [Example 63, (R)-(5-(1-(difluoromethyl)-1H-pyrazol-4-yl)-1,3,4-oxadiazol-2-yl)(4-(quinolin-2-yl)-6,7-dihydro-1H-imidazo[4,5-c]pyridin-5(4H)-yl)methanone]: the AC50 under setting [1] is under 500 nM.

With `O=C(c1cnc(C2CC2)o1)N1CCc2[nH]cnc2C1c1cn2ccccc2n1` (centres unmarked), the AC50 under setting [2] fell in the range of 1000 to 5000 nM. As for `O=C(c1ocnc1C1CC1)N1CCc2[nH]cnc2[C@H]1c1cn2ccccc2n1` [Example 244, (R)-(4-cyclopropyloxazol-5-yl)(4-(imidazo[1,2-a]pyridin-2-yl)-6,7-dihydro-1H-imidazo[4,5-c]pyridin-5(4H)-yl)methanone], under setting [1], the concentration at half-maximal activity (AC50) is 500 to 1000 nM. Take `O=C(c1n[nH]c2ccccc12)N1CCc2[nH]cnc2[C@H]1c1cc2ccccc2cn1` [Example 359, (3a,7a-dihydro-1H-indazol-3-yl)((R)-4-(isoquinolin-3-yl)-6,7-dihydro-1H-imidazo[4,5-c]pyridin-5(4H)-yl)methanone]: the AC50 under setting [1] was under 500 nM. As for `O=C(c1cnc(C(F)(F)F)o1)N1CCc2[nH]cnc2C1c1cn2ccccc2n1` (centres unmarked), under setting [2], the AC50 is 1000 to 5000 nM. Regarding `O=C(c1cncs1)N1CCc2[nH]cnc2[C@@H]1c1ccc2ccccc2c1` [Example 222, (S)-(4-(naphthalen-2-yl)-6,7-dihydro-1H-imidazo[4,5-c]pyridin-5(4H)-yl)(thiazol-5-yl)methanone], the concentration at half-maximal activity (AC50) under setting [1] is over 5000 nM. Consider `CC(C)(C#N)c1nc(C(F)F)c(C(=O)N2CCc3[nH]cnc3C2c2ccc3ccccc3n2)o1` (stereo in doubt) [Example 128, (R)-2-(4-(difluoromethyl)-5-(4-(quinolin-2-yl)-4,5,6,7-tetrahydro-1H-imidazo[4,5-c]pyridine-5-carbonyl)oxazol-2-yl)-2-methylpropanenitrile], for which the concentration at half-maximal activity (AC50) under setting [1] was under 500 nM. On to `Cc1nc(C2CC2)oc1C(=O)N1CCc2[nH]cnc2C1c1ccc2ccccc2n1` (stereo in doubt) [Example 36, (S)-(2-cyclopropyl-4-methyloxazol-5-yl)(4-(quinolin-2-yl)-6,7-dihydro-1H-imidazo[4,5-c]pyridin-5(4H)-yl)methanone], for which the AC50 under setting [1] was over 5000 nM.

Consider `CN(C)Cc1ccc2c(C(=O)N3CC4(CC4)c4[nH]cnc4C3c3cc4ccccc4cn3)cnn2c1` (centres unmarked), for which the AC50 under setting [2] lay within 1000 to 5000 nM. In the case of `CC(C)(O)c1ncc(C(=O)N2CCc3[nH]cnc3C2c2cc3ccccc3cn2)o1` (centres unmarked), under setting [2], the AC50 is 1000 to 5000 nM. On the same count and under the same terms, to `Cc1ncc(CC(=O)N2CCc3[nH]cnc3C2c2cn3ccccc3n2)o1` (centres unmarked) belongs over 5000 nM. Still for that read-out and setting: the result for `COCc1ccc2c(C(=O)N3CC(C)c4[nH]cnc4C3c3cc4ccccc4cn3)cnn2c1` [(4S, 7S) diastereomer of 3-[5-[6-(methoxymethyl)pyrazolo[1,5] reads 1000 to 5000 nM; that for `CC(C)(O)c1ncc(C(=O)N2CCc3[nH]cnc3C2c2cn3ccccc3n2)s1` (centres unmarked), 1000 to 5000 nM. For `O=C(c1oc(-c2ccccn2)nc1C(F)(F)F)N1CCc2[nH]cnc2[C@H]1c1cn2ccccc2n1` [Example 256, (R)-(4-(imidazo[1,2-a]pyridin-2-yl)-6,7-dihydro-1H-imidazo[4,5-c]pyridin-5(4H)-yl)(2-(pyridin-2-yl)-4-(trifluoromethyl)oxazol-5-yl)methanone], the AC50 under setting [1] is under 500 nM. On to `O=C(c1cnc(C2(F)CCC2)s1)N1CCc2[nH]cnc2[C@@H]1c1cn2ccccc2n1` [Example 252, (S)-(2-(1-fluorocyclobutyl)thiazol-5-yl)(4-(imidazo[1,2-a]pyridin-2-yl)-6,7-dihydro-1H-imidazo[4,5-c]pyridin-5(4H)-yl)methanone], for which the AC50 under setting [1] was over 5000 nM. Consider `O=C(c1nnc(CCNC2CC2)o1)N1CCc2[nH]cnc2C1c1ccc2ccccc2n1` (centres unmarked), for which, under setting [2], the AC50 is over 5000 nM.

In the case of `O=C(Cc1cnn2ccccc12)N1CCc2[nH]cnc2C1c1cn2ccccc2n1` (centres unmarked), the AC50 under setting [2] was over 5000 nM. For the compound `CC(C)(F)c1nnc(C(=O)N2CCc3[nH]cnc3[C@@H]2c2ncc3ccccc3n2)o1` [Example 162, (R)-(5-(2-fluoropropan-2-yl)-1,3-oxadiazol-2-yl)(4-(quinazolin-2-yl)-6,7-dihydro-1H-imidazo[4,5-c]pyridin-5(4H)-yl)methanone], the concentration at half-maximal activity (AC50) under setting [1] was over 5000 nM. In the case of `Cc1ncccc1-c1ccc2c(C(=O)N3CCc4[nH]cnc4[C@H]3c3cc4ccccc4cn3)cnn2c1` [Example 480, (R)-(4-(isoquinolin-3-yl)-6,7-dihydro-1H-imidazo[4,5-c]pyridin-5(4H)-yl)(6-(2-methylpyridin-3-yl)pyrazolo[1,5-a]pyridin-3-yl)methanone], under setting [1], the AC50 is under 500 nM. Regarding `O=C(c1cnc(C2(O)CCC2)s1)N1CCc2[nH]cnc2C1c1cn2ccccc2n1` (centres unmarked), the AC50 under setting [2] fell in the range of 1000 to 5000 nM.

For `C[C@H]1CN(C(=O)c2ocnc2C2CC2)[C@H](c2cc3ccccc3cn2)c2nc[nH]c21` [Example 506, (4-cyclopropyloxazol-5-yl)((4R,7S)-4-(isoquinolin-3-yl)-7-methyl-6,7-dihydro-1H-imidazo[4,5-c]pyridin-5(4H)-yl)methanone], the AC50 under setting [1] is under 500 nM. As to `Cc1nc(-c2ccccn2)oc1C(=O)N1CCc2[nH]cnc2[C@H]1c1cc2ccccc2nn1` [Example 208, (S)-(4-(cinnolin-3-yl)-6,7-dihydro-1H-imidazo[4,5-c]pyridin-5(4H)-yl)(4-methyl-2-(pyridin-2-yl)oxazol-5-yl)methanone], the AC50 under setting [1] lay within 500 to 1000 nM.

Usually AC50 stands for the concentration at which the activity in the assay is half-maximal.
